In this test the target is hPK, M2 (Homo sapiens, UniProt P14618). Put plainly: luminescent pyruvate kinase-luciferase coupled assay (qHTS). The test is classed as biochemical. The following applies: for AC50: 0.1 mM ADP, 0.5 mM PEP; for Emax: maximum response (activation), read-out: Max. Res.; for activation at 57 µM: % activation at 57 μM of compound, read-out: hPK, M2 Max. Res. The method, then:
AC50 values were determined utilizing the luminescent pyruvate kinase-luciferase coupled assay (Inglese, J. et al, Quantitative high-throughput screening: a titration-based approach that efficiently identifies biological activities in large chemical libraries. Proc. Natl. Acad. Sci. U.S.A. 2006, 103, 11473-11478).
Luminescent Pyruvate Kinase-Luciferase Coupled Assay.
Production of a luminescent signal based on the generation of ATP by pyruvate kinase was determined by using the ATP-dependent enzyme firefly luciferase. Three μL of substrate mix (at r.t.) in assay buffer (50 mM imidazole pH 7.2, 50 mM KCl, 7 mM MgCl2, 0.01% tween 20, 0.05% BSA) was dispensed into Kalypsys (San Diego, Calif., USA) white solid bottom 1,536 well microtiter plates using a bottle-valve solenoid-based dispenser (Kalypsys). The final concentrations of substrates in the assay were 0.1 mM ADP and 0.5 mM PEP. Twenty-three nL of compound in DMSO were delivered with a 1,536-pin array tool, and 1 μL of enzyme mix in assay buffer (final concentration, 0.1 nM pyruvate kinase, 50 mM imidazole pH 7.2, 0.05% BSA, 4° C.) was added. Microtiter plates were incubated at r.t. for 1 hour and 2 uL of luciferase detection mix (Kinase-Glo from Promega, Madison, Wis., USA) at 4° C. protected from light, was added and luminescence was read with a ViewLux (Perkin Elmer, Waltham, Mass., USA) using a 2 second exposure/plate (with 2× binning). The final concentration of DMSO was 0.5% and found not to affect the assay signal.
Data was normalized for AC50 values to control columns containing uninhibited enzyme (n), and AC100 inhibition (i) according the following equation: Activation (%)=[(c−n)/(n−i)]*100 where c=compound, n=DMSO neutral, i=no enzyme control. A % activity of 100% is approximately a 2-fold increase over basal assay signal (% Activation by FBP was variable but averaged 100%). Monitoring of activation was accomplished using enzyme at 3× the final concentration.
All compounds were screened using a qHTS approach, where compounds are assayed using at least seven concentrations to generate concentration-response curves for every compounds. Briefly, qHTS uses an inter-plate dilution method where the first plate contains the highest concentration of a set of compounds in DMSO, while subsequent plates contain the same compounds in the same well locations, but at successive lower concentrations. Using the protocol outlined above, the rate was calculated as a plate throughput of 18 plates/hr or approximately 7 samples/sec on the Kalypsys robotic system which means that a 7 point CRC was obtained every second on the robotic system.
In general terms: qHTS replaces the single test concentration by a dilution series.

Where [1] appears, read: Table 1, mean of three replicate experiments, read-out: hPK, M2 AC50.
The mark [2] stands for this setting: Table 1, mean of three replicate experiments.
The mark [3] stands for this setting: Table 2, mean of three replicate experiments, read-out: hPK, M2 AC50.
[4] abbreviates: Table 2, mean of three replicate experiments.
Where [5] appears, read: Table 3, mean of three replicate experiments, read-out: hPK, M2 AC50.
Where [6] appears, read: Table 3, mean of three replicate experiments.

Molecules are shown by their SMILES. Like-named read-outs stand apart in the source and are kept apart here.

Broadly, the AC50 is the midpoint of the concentration-response curve, whichever way the signal moves.

hPK, M2, sequence (P14618 whole entry): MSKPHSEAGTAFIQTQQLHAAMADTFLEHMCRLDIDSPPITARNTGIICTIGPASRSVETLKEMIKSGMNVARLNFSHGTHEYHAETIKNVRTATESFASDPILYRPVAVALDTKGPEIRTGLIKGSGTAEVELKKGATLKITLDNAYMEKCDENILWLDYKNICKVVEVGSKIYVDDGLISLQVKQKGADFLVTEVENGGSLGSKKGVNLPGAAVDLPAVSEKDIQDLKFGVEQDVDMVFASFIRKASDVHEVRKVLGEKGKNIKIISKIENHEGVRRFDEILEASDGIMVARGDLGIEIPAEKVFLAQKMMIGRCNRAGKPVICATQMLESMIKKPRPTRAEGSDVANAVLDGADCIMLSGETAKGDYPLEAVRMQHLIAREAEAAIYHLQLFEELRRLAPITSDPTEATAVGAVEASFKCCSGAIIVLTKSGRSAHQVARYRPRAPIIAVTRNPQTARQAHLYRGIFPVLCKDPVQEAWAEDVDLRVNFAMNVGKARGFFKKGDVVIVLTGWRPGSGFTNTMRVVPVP

With `CC(=O)N1c2ccc(S(=O)(=O)Nc3ccc(C)c(C)c3)cc2CC1C` (centres unmarked) [Compound 47, 1-acetyl-N-(3,4-dimethylphenyl)-2-methylindoline-5-sulfonamide], the AC50 (Table 4, read-out: AC50) turned out to be 18300 nM. Also, the Emax (Table 4) was 112%.

As to `Cc1ccc(NS(=O)(=O)c2cc3c(cc2NCCO)NC(=O)CC3)cc1C` [Compound 70, N-(3,4-dimethylphenyl)-7-(2-hydroxyethylamino)-2-oxo-1,2,3,4-tetrahydroquinoline-6-su 1 fonamide], the AC50 (Table 4, read-out: AC50) was 90 nM. Besides, where the note is “Table 4”, the Emax was determined as 111%.

Consider `CCN(CC)c1cc2c(cc1S(=O)(=O)Nc1ccc(C)c(C)c1)CCC(=O)N2` [Compound 66, 7-(diethylamino)-N-(3,4-dimethylphenyl)-2-oxo-1,2,3,4-tetrahydroquinoline-6-sulfonamide], for which the AC50 (Table 4, read-out: AC50) came to 7240 nM. Also, the Emax (Table 4) stood at 111%.

Consider `Cc1ccc(NS(=O)(=O)c2cc3c(cc2F)NC(=O)CC3)cc1Cl` [Compound 51, N-(3-chloro-4-methylphenyl)-7-fluoro-2-oxo-1,2,3,4-tetrahydroquinoline-6-sulfonamide], for which the AC50 (Table 4, read-out: AC50) is 120 nM. Further, where the note is “Table 4”, the Emax came to 102%.

`Cc1ccc(NS(=O)(=O)c2ccc3c(ccn3C)c2)cc1C` [Compound 12, N-(3,4-dimethylphenyl)-1-methyl-1H-indole-5-sulfonamide]: the AC50 under setting [1] turned out to be 20000 nM. In addition, under setting [2], the activation at 57 µM is 40%.

As to `O=C1CCc2cc(S(=O)(=O)Nc3cccc4ccccc34)ccc2N1` [Compound 28, N-(naphthalen-1-yl)-2-oxo-1,2,3,4-tetrahydroquinoline-6-sulfonamide], the AC50 under setting [3] is 10000 nM. Also, the activation at 57 µM under setting [4] came out at 101%.

Consider `O=C1CCc2cc(S(=O)(=O)Nc3cccc(Cl)c3)ccc2N1` [Compound 13, N-(3-chlorophenyl)-2-oxo-1,2,3,4-tetrahydroquinoline-6-sulfonamide], for which, under setting [3], the AC50 was determined as 650 nM. In addition, the activation at 57 µM under setting [4] came out at 100%.

With `Cc1ccc(NS(=O)(=O)c2cc3c(cc2Cl)CCC(=O)N3)cc1Cl` [Compound 49, 6-chloro-N-(3-chloro-4-methylphenyl)-2-oxo-1,2,3,4-tetrahydroquinoline-7-sulfonamide], the AC50 (Table 4, read-out: AC50) is 650 nM. Also, for the setting “Table 4”, the Emax amounted to 112%.

Turning to `COc1ccccc1NS(=O)(=O)c1ccc2c(c1)CCC(=O)N2` [Compound 25, N-(2-methoxyphenyl)-2-oxo-1,2,3,4-tetrahydroquinoline-6-sulfonamide], the AC50 under setting [3] was 21000 nM. Under setting [4], the activation at 57 µM worked out at 60%.

Turning to `O=C1CCc2cc(S(=O)(=O)Nc3cccnc3)ccc2N1` [Compound 19, 2-oxo-N-(pyridin-3-yl)-1,2,3,4-tetrahydroquinoline-6-sulfonamide], the AC50 under setting [3] stood at 23000 nM. In addition, the activation at 57 µM under setting [4] was 36%.

Consider `O=C1CCc2cc(S(=O)(=O)NCc3ccccc3)ccc2N1` [Compound 30, N-benzyl-2-oxo-1,2,3,4-tetrahydroquinoline-6-sulfonamide], for which the AC50 under setting [3] was 14000 nM. Also, the activation at 57 µM under setting [4] was 25%.

Regarding `Cc1ccc(NS(=O)(=O)c2ccc3c(c2)CC(=O)N3)cc1C` [Compound 5, N-(3,4-dimethylphenyl)-2-oxoindoline-5-sulfonamide], the AC50 under setting [1] is 14500 nM. For the same compound, under setting [2], the activation at 57 µM was found to be 130%.

Turning to `Cc1ccc(NS(=O)(=O)c2cc3c(cc2NCC(C)(C)O)NC(=O)CC3)cc1C` [Compound 64, N-(3,4-dimethylphenyl)-7-(2-hydroxy-2-methylpropylamino)-2-oxo-1,2,3,4-tetrahydroquinoline-6-sulfonamide], the AC50 (Table 4, read-out: AC50) is 1830 nM. Moreover, under “Table 4”, the Emax turned out to be 100%.

For the compound `Cc1ccc(NS(=O)(=O)c2cc3c(cc2N[C@H](C)CO)NC(=O)CC3)cc1C` [Compound 69, (R)—N-(3,4-dimethylphenyl)-7-(1-hydroxypropan-2-ylamino)-2-oxo-1,2,3,4-tetrahydroquinoline-6-sulfonamide], the AC50 (Table 4, read-out: AC50) came out at 370 nM. Also, the Emax (Table 4) was determined as 87.7%.

For the compound `Cc1ccc(NS(=O)(=O)c2cc3c(cc2N2CCCCC2)NC(=O)CC3)cc1C` [Compound 34, N-(3,4-dimethylphenyl)-2-oxo-7-(piperidin-1-yl)-1,2,3,4-tetrahydroquinoline-6-sulfonamide], the AC50 under setting [5] came out at 15000 nM. For the same compound, under setting [6], the activation at 57 µM is 57%.

Consider `Cc1ccc(NS(=O)(=O)c2ccc3c(c2)n(C)c(=O)n3C)cc1C` [Compound 10, N-(3,4-dimethylphenyl)-1,3-dimethyl-2-oxo-2,3-dihydro-1H-benzo[d]imidazole-5-sulfonamide], for which, under setting [1], the AC50 was found to be 1800 nM. Also, the activation at 57 µM under setting [2] is 100%.

Consider `Cc1ccc(NS(=O)(=O)c2cc3c(cc2N2CCCC2)NC(=O)CC3)cc1C` [Compound 62, N-(3,4-dimethylphenyl)-2-oxo-7-(pyrrolidin-1-yl)-1,2,3,4-tetrahydroquinoline-6-sulfonamide], for which the AC50 (Table 4, read-out: AC50) turned out to be 460 nM. Further, under “Table 4”, the Emax was 124%.

As for `COc1ccc(NS(=O)(=O)c2ccc3c(c2)CCC(=O)N3)cc1` [Compound 22, N-(4-methoxyphenyl)-2-oxo-1,2,3,4-tetrahydroquinoline-6-sulfonamide], the half-maximal activity concentration (AC50) under setting [3] was 36000 nM. In addition, the activation at 57 µM under setting [4] amounted to 47%.

On to `O=C1CCc2cc(S(=O)(=O)Nc3ccc(Cl)cc3)ccc2N1` [Compound 20, N-(4-chlorophenyl)-2-oxo-1,2,3,4-tetrahydroquinoline-6-sulfonamide], for which, under setting [3], the AC50 was 3200 nM. Also, the activation at 57 µM under setting [4] is 94%.

Regarding `Cc1ccc(NS(=O)(=O)c2cc3c(cc2Cl)CCC(=O)N3)cc1C` [Compound 35, 6-chloro-N-(3,4-dimethylphenyl)-2-oxo-1,2,3,4-tetrahydroquinoline-7-sulfonamide], the AC50 under setting [5] was 260 nM. In addition, under setting [6], the activation at 57 µM stood at 104%.

Take `Cc1cc(NS(=O)(=O)c2cc3c(cc2N[C@@H](C)CO)NC(=O)CC3)ccc1F` [Compound 72, (S)—N-(4-fluoro-3-methylphenyl)-7-(1-hydroxypropan-2-ylamino)-2-oxo-1,2,3,4-tetrahydroquinoline-6-sulfonamide]: the AC50 (Table 4, read-out: AC50) came to 270 nM. The Emax (Table 4) is 99%.

On to `Cc1ccc(NS(=O)(=O)c2cc3c(cc2C)NC(=O)CO3)cc1C` [Compound 39, N-(3,4-dimethylphenyl)-6-methyl-3-oxo-3,4-dihydro-2H-benzo[b][1,4]oxazine-7-sulfonamide], for which, under setting [5], the AC50 came out at 1200 nM. Under setting [6], the activation at 57 µM came out at 106%.

`O=C1CCc2cc(S(=O)(=O)Nc3ccc4ccccc4c3)ccc2N1` [Compound 27, N-(naphthalen-2-yl)-2-oxo-1,2,3,4-tetrahydroquinoline-6-sulfonamide]: under setting [3], the AC50 came out at 2900 nM. For the same compound, under setting [4], the activation at 57 µM came to 87%.

In the case of `Cc1cccc(NS(=O)(=O)c2ccc3c(c2)CCC(=O)N3)c1` [Compound 14, 2-oxo-N-m-tolyl-1,2,3,4-tetrahydroquinoline-6-sulfonamide], the AC50 under setting [3] came to 1200 nM. Under setting [4], the activation at 57 µM was found to be 99%.

Turning to `O=C1CCc2cc(S(=O)(=O)Nc3ccc(Cl)c(Cl)c3)c(F)cc2N1` [Compound 54, N-(3,4-dichlorophenyl)-7-fluoro-2-oxo-1,2,3,4-tetrahydroquinoline-6-sulfonamide], the AC50 (Table 4, read-out: AC50) was found to be 3660 nM. The Emax (Table 4) came to 109%.
